Experimental findings from patent publication US20050106730A1, “Compositions and methods utilizing stable reporter cell lines for detection of pathway-specific signal transduction” (priority 1999, published 2005) are described below.

Assay [1] deals with cAMP/CREB pathway (GAL4-CREB fusion). Briefly: Luciferase reporter assay in RCLH-CREB stable reporter cells treated with extracellular stimuli. The class given is cell-based, human. The note with it: in the presence of 100 uM forskolin, 5 hours. Background: A reporter such as luciferase makes a cellular process visible.
Assay [2] has as its system MAPK pathway converging on Elk1 (GAL4-Elk1 fusion). Briefly: Luciferase reporter assay in RCLH-Elk1 stable reporter cells treated with extracellular stimuli. The note with it: separate experiment.

As for `CCCCCCCCCCCCCC(=O)O[C@@H]1[C@@H](C)[C@@]2(O)[C@@H](C=C(CO)C[C@]3(O)C(=O)C(C)=C[C@@H]23)[C@@H]2C(C)(C)[C@]12OC(C)=O` [PMA, phorbol 12-myristate 13-acetate], in assay [1], the “Stimulation of luciferase expression” value was “approximately 70 fold”. As for “TGF-α: growth factor found to activate MAPK pathways”, the “Activation of MAPK pathways” value in assay [2] was “also activates MAPK pathways”.
